Laboratory results: patent US8329756B2, “Drug for treatment of colon cancer” (Oncophor, LLC, priority 2009, dated 2012)

Tested on: DLD-1 cells
Assay: in vitro test with cancerous DLD1 colon cells treated continuously
Type: cell-based
Conditions: continuous treatment, about 125 μg·ml of Formula (2)
Procedure: FIG. 1 illustrates the survival percentage colon DLD-1 carcinoma cells […] after continuous treatment with Formula (2).
FIG. 1 illustrates the results of an in vitro test with cancerous DLD1 colon cells treated continuously with Formula (2). The survival percentage for DLD-1 cells decreases from 100 percent without treatment to less than 1 percent in the presence of continuous treatment of about 125 μg·ml of Formula (2).

In the case of `Cc1cccc(NC(C)c2ccccc2C)c1` (stereo not shown) [Formula (2), 3-methyl-N-(1-o-tolylethyl)benxenamine], the “survival percentage for DLD-1 cells” value is reported as “less than 1%”.
